Measured values taken from patent US11465987B2, “Compounds for treatment of cancer” (ONCTERNAL THERAPEUTICS, INC., priority 2012, dated 2022).
Like-named read-outs stand apart in the source and are kept apart here.

Assays:
[1] = tested on: PC-3 human prostate cancer cell line; assay: cells; conditions: Homo sapiens
Source text: (§1) Cells were stained with SRB solution.

[2] = tested on: NCI/ADR-RES (P-gp over-expressing resistant line of OVCAR-8); assay: Cytotoxicity (SRB) assay, NCI/ADR-RES; assay type: cell-based, human
[3] = tested on: melanoma and prostate cancer cell lines; assay: Antiproliferative activity summarised over the cell line panel (range or average); assay type: cell-based; conditions: read-out: IC50 (range over tested cell lines)
[4] = tested on: Bovine brain tubulin; assay: In vitro tubulin polymerization assay (bovine brain tubulin); assay type: biochemical; conditions: 10 μM, absorbance 340 nm over 15 min
Description: The spectrophotometer was maintained at 37° C. for tubulin polymerization.

[5] = tested on: A375 human melanoma xenograft; assay: In vivo A375 human melanoma xenograft
[6] = ICR mice, 4 consecutive days of intraperitoneal dosing
[7] = Pharmacokinetic study in ICR mice; conditions: mice, 15 mg/kg i.v.
[8] = tested on: PC-3 xenograft; assay: In vivo PC-3 prostate tumor xenograft; conditions: for tumor volume at day 21: control 680 mm^3
[9] = tested on: MES-SA/DX5 cells; assay: Growth inhibition (SRB) assay, MES-SA/Dx5; assay type: cell-based; conditions: ratio of IC50 MES-SA/DX5 to MES-SA
[10] = tested on: OVCAR-8 human ovarian cell line; assay: Cytotoxicity (SRB) assay, OVCAR-8; assay type: cell-based; conditions: Table 14B, parental cell line, read-out: IC50 ± SEM, OVCAR-8
[11] = tested on: WM-164 melanoma cells; assay: Microtubule imaging (immunofluorescence); assay type: cell-based, human; conditions: WM-164 cells, 18 h
Source text: Primary antibody for tubulin and fluorescence-labeled secondary antibody were subsequently added to the cells. Cell nuclei were stained by DAPI. Whole Cell Stain Green was also applied to all cells. All images were acquired with an Olympus IX71 inverted fluorescence microscope (Olympus Corp., Tokyo, Japan) with overlays from separate images of tubulin (red), nuclei (blue), and whole cells (green).

[12] = tested on: A375MA2 melanoma cell line; assay: Cytotoxicity assay, A375MA2; assay type: cell-based; conditions: Table 14B, n = 3; read-out: IC50 ± SEM, A375MA2
[13] = tested on: HEK293-pcDNA3.1 cells; assay: Cytotoxicity assay, HEK293-pcDNA3.1 (parental line of the MRP/BCRP sublines); assay type: cell-based; conditions: Table 14B; parental cell line; read-out: IC50 ± SEM, HEK293-pcDNA3.1
[14] = tested on: MDA-MB-435/LCCMDR1 multidrug-resistant melanoma cells; assay: Cytotoxicity (SRB) assay, MDA-MB-435/LCCMDR1; assay type: cell-based; conditions: for P-gp substrate / multidrug resistance in words: MDR melanoma line vs sensitive parent line; for IC50: Homo sapiens
[15] = tested on: B16-F1 melanoma tumors; assay: In vivo B16-F1 melanoma allograft; design: species or system mouse
Description: Female C57/BL mice, age 4-6 weeks, were purchased from Harlan Laboratories (Harlan Laboratories Inc., Indianapolis, Ind.). The animal housing met the Association for Assessment and Accreditation and Laboratory Animal Care specifications. All of the procedures were conducted in accordance with guidelines of our Institutional Animal Care and Use Committee.
Tumor volume was expressed in cubic millimeters.

[16] = tested on: A375 human melanoma cell line; assay: Cytotoxicity (SRB) assay, A375; assay type: cell-based; conditions: Homo sapiens, A-375, Table 14D; read-out: IC50 ± SEM, A375 (converted)
[17] = tested on: DU 145 human prostate cancer cell line; assay: Cytotoxicity (SRB) assay, DU 145; assay type: cell-based; conditions: Homo sapiens
Source text: as §1

[18] = tested on: PPC-1 human prostate cancer cell line; assay: Cytotoxicity (SRB) assay, PPC-1; assay type: cell-based; conditions: Homo sapiens
Source text: as §1

[19] = tested on: MDA-MB-435 parental nonresistant melanoma cells; assay: Cytotoxicity (SRB) assay, MDA-MB-435; assay type: cell-based; conditions: Homo sapiens, Table 14D, read-out: IC50 ± SEM, MDA-MB-435 (converted)
[20] = tested on: DU-145/TXR cells; assay: Growth inhibition, DU-145/TXR; assay type: cell-based; conditions: Homo sapiens
[21] = tested on: LNCaP human prostate cancer cell line; assay: Cytotoxicity (SRB) assay, LNCaP; assay type: cell-based; conditions: Homo sapiens, LNCaP
Source text: as §1

[22] = tested on: PC-3_TxR paclitaxel-resistant prostate cancer cells (P-gp over-expressing); assay: cells; conditions: Homo sapiens, PC3-TxR
[23] = tested on: confluent HUVEC monolayers; assay: Endothelial monolayer permeability assay; conditions: FITC-dextran leakage, 1, 2, 4 h
[24] = tested on: PC-3_TxR xenograft; assay: In vivo PC-3/TxR xenograft; conditions: for tumor growth inhibition (TGI): PC-3/TxR tumors
[25] = read-out: IC50 PC-3, SRB assay, prostate cancer PC-3
[26] = Melanoma (A375) xenograft, 15 mg/kg i.p.
[27] = DU-145, Table 12, read-out: IC50 ± SEM, Du 145
[28] = read-out: IC50 ± SEM, PC-3, Table 12
[29] = PPC-1, Table 12, read-out: IC50 ± SEM, PPC-1 (converted)
[30] = Table 14D, read-out: IC50 ± SEM, MDA-MB-435/LCC-6MDR1 (converted)
[31] = DU-145, Table 13A, read-out: inhibitory effects, DU145
[32] = read-out: inhibitory effects, PC3, Table 13A
[33] = Table 13A, read-out: inhibitory effects, LNCaP
[34] = PPC-1, Table 13A, read-out: inhibitory effects, PPC1
[35] = DU-145, Table 13A, read-out: inhibitory effects, DU-145/TXR
[36] = read-out: inhibitory effects, PC3/TXR

SMILES: COc1cc(C(=NC#N)c2csc(-c3ccccc3)n2)cc(OC)c1OC [2j, N-((2-phenylthiazol-4-yl)(3,4,5-trimethoxyphenyl)methylene)cyanamide]
- IC50 [1, 25]: 27 ± 1 nM
- Resistance factor ([2]; NCI/ADR-RES relative to OVCAR-8): 0.4
- IC50 [3]: 20 to 60 nM

SMILES: COc1cc(C(=O)c2csc(-c3ccc(F)cc3)n2)cc(OC)c1OC [2k]
- inhibition of tubulin polymerization [4]: 90%
- % T/C [5, 26]: 28%
- T-C [5, 26]: 11 days
- dose not causing greater than 10% loss of body weight [6]: ≤ 15 mg/kg
- AUC [7]: 2200 ng·h/mL
- % T/C ([8]; PC-3, 5 mg/kg i.p.): 21%
- tumor volume at day 21 ([8]; PC-3, 5 mg/kg i.p. daily): 269 mm^3
- % T/C ([8]; PC-3, 15 mg/kg i.p.): 24%
- tumor volume at day 21 ([8]; PC-3, 15 mg/kg i.p. daily): 292 mm^3
- mice that lost more than 15% body weight ([8]; PC-3 xenograft, 15 mg/kg i.p.): 2 out of 7

SMILES: Fc1ccc(-c2nccc3ccc(-c4ccc5[nH]ccc5c4)cc23)cc1 [6c, 1-(4-Fluoro-phenyl)-7-(H-indol-5-yl)-isoquinoline]
- Resistance factor [9]: 1.7

SMILES: COc1ccc(-c2nc(C(=O)c3ccc(F)cc3)c[nH]2)cc1 [12cb, (4-fluorophenyl)(2-(4-methoxyphenyl)-1H-imidazol-4-yl)methanone]
- IC50 [10]: 25 ± 2 nM
- effect on microtubules in words [11]: microtubule fragmentation
- IC50 [12]: 44 ± 5 nM
- IC50 [13]: 12 ± 2 nM

SMILES: O=C(c1ccc(F)cc1)c1c[nH]c(-c2ccc(Cl)cc2)n1 [12fb, (2-(4-chlorophenyl)-1H-imidazol-4-yl)(4-fluorophenyl)methanone]
- IC50 [10]: 45 ± 2 nM
- IC50 ([2]; Homo sapiens, NCI/ADR-RES, Table 14B, MDR1 overexpressed, read-out: IC50 ± SEM, NCI/ADR-RES): 20 ± 6 nM
- P-gp substrate / multidrug resistance in words [14]: not substrates for P-gp
- tumor growth inhibition (TGI value) ([15]; C57BL/6 mice, 15 mg/kg, 13 days): 32%
- tumor growth inhibition (TGI value) ([15]; C57BL/6 mice, 45 mg/kg, 13 days): 82%
- well tolerated dose ([5]; SHO mice, 31 days): 25 mg/kg
- IC50 [12]: 55 ± 4 nM
- IC50 [13]: 54 nM

SMILES: CCc1ccc(-c2nc(C(=O)c3cc(OC)c(OC)c(OC)c3)c[nH]2)cc1 [12q, (2-(4-ethylphenyl)-1H-imidazol-4-yl)(3,4,5-trimethoxyphenyl)methanone]
- IC50 [16]: 1.4 nM
- IC50 [17, 27]: 25 nM
- IC50 [1, 28]: 13 nM
- IC50 [18, 29]: 15 nM
- IC50 [19]: 107 ± 5 nM
- IC50 [14, 30]: 27 ± 3 nM
- IC50 ([20]; Table 12, in parentheses in the Du 145 column, read-out: IC50, DU-145/TXR): 20 nM

SMILES: COc1cc(C(=O)c2c[nH]c(-c3ccc(C(C)(C)C)cc3)n2)cc(OC)c1OC [12w, (2-(4-tert-butylphenyl)-1H-imidazol-4-yl)(3,4,5-trimethoxyphenyl)methanone]
- IC50 [17, 27]: 1700 nM
- IC50 [1, 28]: 436 nM
- IC50 ([21]; Table 12, read-out: IC50 ± SEM, LNCaP (converted)): 423 nM
- IC50 [18, 29]: 294 nM
- IC50 [19]: 3690 nM
- IC50 [14, 30]: 3070 nM

SMILES: COc1cc(C(=O)c2nc(-c3ccccc3)c[nH]2)cc(OC)c1OC [70a, (4-Phenyl-1H-imidazol-2-yl)(3,4,5-trimethoxyphenyl)methanone and (5-phenyl-1H-imidazol-2-yl)(3,4,5-trimethoxyphenyl)methanone]
- IC50 [17, 31]: 21.5 nM
- IC50 [1, 32]: 14 nM
- IC50 [21, 33]: 6 nM
- IC50 [18, 34]: 13 nM
- IC50 [19]: 79 nM
- IC50 [14, 30]: 43 nM
- IC50 [20, 35]: 22.9 nM

SMILES: COc1cc(C(=O)c2nc(-c3ccccc3)cn2C)cc(OC)c1OC [70m, (1-Methyl-4-phenyl-1H-imidazol-2-yl)(3,4,5-trimethoxyphenyl)methanone]
- IC50 [17, 31]: 26 nM
- IC50 [1, 32]: 16 nM
- IC50 [18, 34]: 13 nM
- IC50 [20, 35]: 27 nM
- IC50 [22, 36]: 7.5 nM

SMILES: CCn1cc(-c2ccccc2)nc1C(=O)c1cc(OC)c(OC)c(OC)c1 [70n, (1-Ethyl-4-phenyl-1H-imidazol-2-yl)(3,4,5-trimethoxyphenyl)methanone]
- IC50 [17, 31]: 66 nM
- IC50 [1, 32]: 25 nM
- IC50 [21, 33]: 29 nM
- IC50 [20, 35]: 66 nM
- IC50 [22, 36]: 20 nM

SMILES: COc1ccc(S(=O)(=O)Nc2cccnc2Nc2ccc(O)cc2)cc1 [ABT-751, reference compound]
- IC50 ([14]; Table 14B, MDR1 overexpressed, read-out: IC50 ± SEM, MDA-MB-435/LCC6MDR1): 577 ± 31 nM
- P-gp substrate / multidrug resistance in words [14]: not susceptible to MDR1, MRP, or BCRP
- effect on microtubules in words [11]: microtubule fragmentation
- IC50 [13]: 645 ± 153 nM

SMILES: COc1ccc(/C=C\c2cc(OC)c(OC)c(OC)c2)cc1O [CA4, Combretastatin A-4]
- permeability of endothelial cell monolayer in words [23]: increased permeability

SMILES: CN(C)/N=N/c1[nH]cnc1C(N)=O [DTIC, 5-(3,3,-dimethyl-1-triazenyl)-imidazole-4-carboxamide, reference compound]
- tumor volume reduction ([15]; C57/BL mice, 60 mg/kg i.p. daily, 14 days): 51%
- tumor growth inhibition (TGI) ([15]; C57BL/6 mice, 60 mg/kg, 13 days): 51%

SMILES: CC(=O)O[C@@]12CO[C@@H]1C[C@H](O)[C@@]1(C)C(=O)[C@H](O)C3=C(C)[C@@H](OC(=O)[C@H](O)[C@@H](NC(=O)OC(C)(C)C)c4ccccc4)C[C@@](O)([C@@H](OC(=O)c4ccccc4)[C@H]21)C3(C)C [docetaxel, reference compound]
- IC50 ([1]; read-out: IC50, PC-3, Table 7): 6.3 ± 0.4 nM
- IC50 [1, 25]: 1.2 ± 0.1 nM
- IC50 ([22]; read-out: IC50 PC-3/TxR): 17.7 ± 0.7 nM
- tumor growth inhibition (TGI) ([24]; i.v. 10 mg/kg on day 1 and 9): 14%
- tumor growth inhibition (TGI) ([24]; i.v. 20 mg/kg on day 1 and 9): 56%
- Tumor size End ([24]; PC-3/TxR xenograft, IV 10 mpk, day 1 and 9, day 19, […]): 1774 ± 183 mm^2
